Measurements published in US20090012047A1, “Crystalline forms of ibandronate sodium” (priority 2006, published 2009).

Assay: Storage stability of crystalline forms at room temperature for two years (form by XRD)
Format: physicochemical
Settings: for Crystal form after 2 years: 1 g sample in closed glass bottle, room temperature, form by XRD, monosodium salt
Protocol: The x-ray powder diffraction was performed on Scintag X-ray powder diffractometer model X'TRA with a solid state detector at room temperature. Copper radiation of 1.5418 Å was used. The sample holder was a round standard aluminum sample holder with rough zero background. The scanning parameters were range: 2-40 degrees two-theta; scan mode: continuous scan; step size: 0.05 degrees; and at a rate of 5 degrees/minute.
1 g samples of crystalline ibandronate sodium Forms K1, D, J, H, E, Q2, QQ, K3, Q4, L, G, C, S, R, Q3, K, and Q6, as well as amorphous form were each placed into separate glass bottles, which were then closed and stored at room temperature for 2 years.

SMILES	Crystal form after 2 years	Stability of crystalline form on storage (about 15° C. to about 30° C. for more than about 3 months, as described in Example 7)	Retention of crystalline form after storage (room temperature for two years)	Crystal form after 2 years (listed as H)
CCCCCN(C)CCC(O)(P(=O)([O-])O)P(=O)(O)O.[Na+] [Form C, (1-hydroxy-3-(N-methyl-N-pentylamino)propylidene) bisphosphonic acid monosodium salt]	Form V	–	–	–
CCCCCN(C)CCC(O)(P(=O)([O-])O)P(=O)(O)O.[Na+] [Form D, (1-hydroxy-3-(N-methyl-N-pentylamino)propylidene) bisphosphonic acid monosodium salt]	–	stable	maintained their crystalline form	–
CCCCCN(C)CCC(O)(P(=O)([O-])O)P(=O)(O)O.[Na+] [Form H, (1-hydroxy-3-(N-methyl-N-pentylamino)propylidene) bisphosphonic acid monosodium salt]	mixture of crystalline ibandronate sodium Forms H and V	–	–	H + V
CCCCCN(C)CCC(O)(P(=O)([O-])O)P(=O)(O)O.[Na+] [Form S, (1-hydroxy-3-(N-methyl-N-pentylamino)propylidene) bisphosphonic acid monosodium salt]	Q plus additional XRD reflections at 10.4,	–	–	–
